Source: the supplement of paper PMC10307832

Assays:
Assay in all cases: relative viability (nuclei count vs DMSO), 5 days (fraction); higher = more cells survive
VX-11e = compound: CC1=CN=C(N=C1C2=CNC(=C2)C(=O)N[C@H](CO)C3=CC(=CC=C3)Cl)NC4=C(C=C(C=C4)F)Cl [VX-11e]
Method in brief: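 On vehicle-anchored 1536-well plates, lung cancer cell lines held overnight at 37 °C were pinned with five library-drug doses (not always all listed) spaced by √10. With no medium change over 5 days, they were then fixed, permeabilised and Hoechst-stained in one step and imaged at 4×. MetaXpress counted nuclei, and viability is the median across plates of treated-well over vehicle-well nuclei. Acceptance needed control CV below 25% and at least one doubling.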

VX-11e + Tozasertib = compound: CC1=CN=C(N=C1C2=CNC(=C2)C(=O)N[C@H](CO)C3=CC(=CC=C3)Cl)NC4=C(C=C(C=C4)F)Cl [VX-11e] + Cc1cc(Nc2cc(N3CCN(C)CC3)nc(Sc3ccc(NC(=O)C4CC4)cc3)n2)n[nH]1 [Tozasertib] (partner 0.1 µM)
Method in brief: (§1)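 Lung cancer cell lines were pin-tool dosed in 1536-well plates on the day after seeding, with either a lone drug or a fixed anchor-drug dose plus five library-drug doses (not always all listed) in √10 steps. Nuclei were counted on 4× images after 5 days. Relative viability is the ratio of treated-well to vehicle-well nuclei counts, with each value a median of duplicate plates.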

VX-11e + Navitoclax = compound: CC1=CN=C(N=C1C2=CNC(=C2)C(=O)N[C@H](CO)C3=CC(=CC=C3)Cl)NC4=C(C=C(C=C4)F)Cl [VX-11e] + CC1(C)CCC(c2ccc(Cl)cc2)=C(CN2CCN(c3ccc(C(=O)NS(=O)(=O)c4ccc(N[C@H](CCN5CCOCC5)CSc5ccccc5)c(S(=O)(=O)C(F)(F)F)c4)cc3)CC2)C1 [Navitoclax] (partner 0.5 µM)
Method in brief: as §1

VX-11e + Phenformin = compound: CC1=CN=C(N=C1C2=CNC(=C2)C(=O)N[C@H](CO)C3=CC(=CC=C3)Cl)NC4=C(C=C(C=C4)F)Cl [VX-11e] + N=C(N)NC(=N)NCCc1ccccc1 [Phenformin] (partner 250 µM)
Method in brief: as §1

| Cell Line | relative viability (VX-11e; 0.04 µM) | relative viability (VX-11e; 0.1265 µM) | relative viability (VX-11e; 0.4 µM) | relative viability (VX-11e; 1.265 µM) | relative viability (VX-11e; 4 µM) | relative viability (VX-11e + Tozasertib; first compound 0.04 µM) | relative viability (VX-11e + Tozasertib; first compound 0.1265 µM) | relative viability (VX-11e + Tozasertib; first compound 0.4 µM) | relative viability (VX-11e + Tozasertib; first compound 1.265 µM) | relative viability (VX-11e + Tozasertib; first compound 4 µM) | relative viability (VX-11e + Navitoclax; first compound 0.04 µM) | relative viability (VX-11e + Navitoclax; first compound 0.1265 µM) | relative viability (VX-11e + Navitoclax; first compound 0.4 µM) | relative viability (VX-11e + Navitoclax; first compound 1.265 µM) | relative viability (VX-11e + Navitoclax; first compound 4 µM) | relative viability (VX-11e + Phenformin; first compound 0.04 µM) | relative viability (VX-11e + Phenformin; first compound 0.1265 µM) | relative viability (VX-11e + Phenformin; first compound 0.4 µM) | relative viability (VX-11e + Phenformin; first compound 1.265 µM) | relative viability (VX-11e + Phenformin; first compound 4 µM) |
| --- | --- | --- | --- | --- | --- | --- | --- | --- | --- | --- | --- | --- | --- | --- | --- | --- | --- | --- | --- | --- |
| LK-2 | 0.908 | 0.983 | 0.821 | 0.588 | 0.705 | 0.148 | 0.182 | 0.22 | 0.185 | 0.159 | 0.893 | 0.732 | 0.781 | 0.738 | 0.86 | 0.241 | 0.601 | 0.311 | 0.189 | 0.173 |
| LOU-NH91 | 0.855 | 0.924 |  | 0.733 | 0.797 | 0.807 | 0.647 | 0.384 | 0.593 | 0.618 | 0.751 | 0.692 |  | 0.593 | 0.581 | 0.65 | 0.721 | 0.312 | 0.468 | 0.569 |
| LU99A | 1.03 | 0.933 | 0.802 | 0.77 | 0.394 | 0.25 | 0.246 | 0.269 | 0.244 | 0.22 | 0.82 | 0.925 | 0.651 | 0.335 | 0.161 | 0.881 | 0.754 | 0.28 | 0.907 | 0.382 |
| LXF-289 | 1.06 | 0.977 | 0.773 | 0.93 | 0.672 | 0.223 | 0.177 | 0.222 | 0.189 | 0.141 | 0.99 | 0.914 | 0.965 | 0.895 | 0.607 | 0.578 | 0.5 | 0.16 | 0.463 | 0.365 |
| NCI-H23 | 0.82 | 0.854 | 0.198 | 0.411 | 0.271 | 0.321 | 0.322 |  | 0.216 | 0.168 | 1 | 0.859 | 0.467 | 0.459 | 0.243 | 0.682 | 0.701 |  | 0.666 | 0.436 |
| NCI-H322M | 0.814 | 0.517 | 0.728 | 0.727 | 0.605 | 0.444 | 0.444 | 0.352 | 0.453 | 0.343 | 1.24 |  | 1.23 | 1.06 | 0.672 | 0.691 | 0.507 | 0.7 | 0.661 | 0.534 |
| NCI-H441 | 1.19 | 1.01 |  | 1.04 | 0.676 | 0.753 | 0.55 |  | 0.585 | 0.453 | 0.668 | 0.469 |  | 0.905 | 0.556 | 0.858 | 0.837 |  | 0.732 | 0.49 |
| NCI-H460 | 1.03 | 0.972 | 0.858 | 0.886 | 0.342 | 0.678 | 0.268 | 0.0898 | 0.031 | 0.0316 | 1.37 | 1.16 | 1.13 | 0.542 | 0.0727 | 0.588 | 0.471 | 0.127 | 0.174 | 0.0711 |
| NCI-H520 | 0.872 | 1.06 | 0.874 | 1.25 | 0.898 | 0.464 | 0.401 | 0.397 | 0.468 | 0.4 | 0.963 | 1.04 | 1 | 1.38 | 0.992 | 0.505 | 0.483 | 0.449 | 0.752 | 0.479 |
| NCI-H596 | 0.916 | 0.901 | 0.943 | 0.525 | 0.578 | 0.912 | 0.815 | 0.845 | 0.758 | 0.446 | 1.12 | 0.876 | 0.895 | 0.951 | 0.586 | 0.648 | 0.791 | 0.8 | 0.369 | 0.599 |
| NCI-H647 | 0.814 | 0.884 | 0.494 | 0.652 | 0.426 | 0.254 | 0.301 | 0.246 | 0.205 | 0.0828 | 1.08 | 1.09 | 0.904 | 0.663 | 0.522 | 0.677 | 0.442 | 0.249 | 0.266 | 0.196 |
| NCI-H727 | 0.784 | 0.933 | 0.687 | 0.551 | 0.347 | 0.66 | 0.48 | 0.45 | 0.429 | 0.325 | 0.395 | 0.332 | 0.283 | 0.167 | 0.115 | 0.439 | 0.475 | 0.451 | 0.359 | 0.353 |
| NCI-H838 | 0.965 | 0.913 | 0.842 | 0.852 | 0.736 | 0.233 | 0.279 | 0.263 | 0.213 | 0.193 | 1.17 | 1.1 | 1.05 | 1.1 | 0.861 | 0.539 | 0.604 | 0.17 | 0.445 | 0.379 |
| NCI-H1355 | 0.766 | 0.842 | 0.771 | 0.756 | 0.437 | 0.516 | 0.544 | 0.457 | 0.346 | 0.282 | 0.92 | 0.891 | 0.945 | 0.695 | 0.333 | 0.417 | 0.435 | 0.34 | 0.379 | 0.348 |
| NCI-H1395 | 0.781 | 0.846 | 0.586 | 0.717 | 0.611 | 0.75 | 0.688 | 0.689 | 0.781 | 0.547 | 1.16 | 0.999 | 0.832 | 1.06 | 0.659 | 0.42 | 0.405 | 0.453 | 0.461 | 0.398 |
| NCI-H1437 | 0.98 | 0.906 | 0.924 | 0.746 | 0.621 | 0.421 | 0.379 | 0.345 | 0.335 | 0.159 | 1.11 | 1.05 | 1.07 | 0.815 | 0.52 | 0.334 | 0.257 | 0.226 | 0.297 | 0.225 |
